# Results as given in patent US9884868B2, “TGF-beta inhibitors” (Rigel Pharmaceuticals, Inc., priority 2015, dated 2018).
# Where a name gives a salt, the structure may show the parent alone.
# Molecular target: HIS-TGF-βR1 T204D (Homo sapiens (Human), UniProt P36897, T204D)
# Test: HTRF probe displacement assay with HIS-TGF-βR1 T204D
# Settings: read-out: TGFbr1 IC50; HTRF probe displacement, 1 nM HIS-TGF-βR1 T204D, 1 hour at room temperature
# HIS-TGF-βR1 T204D, sequence (P36897 34-503 T204D): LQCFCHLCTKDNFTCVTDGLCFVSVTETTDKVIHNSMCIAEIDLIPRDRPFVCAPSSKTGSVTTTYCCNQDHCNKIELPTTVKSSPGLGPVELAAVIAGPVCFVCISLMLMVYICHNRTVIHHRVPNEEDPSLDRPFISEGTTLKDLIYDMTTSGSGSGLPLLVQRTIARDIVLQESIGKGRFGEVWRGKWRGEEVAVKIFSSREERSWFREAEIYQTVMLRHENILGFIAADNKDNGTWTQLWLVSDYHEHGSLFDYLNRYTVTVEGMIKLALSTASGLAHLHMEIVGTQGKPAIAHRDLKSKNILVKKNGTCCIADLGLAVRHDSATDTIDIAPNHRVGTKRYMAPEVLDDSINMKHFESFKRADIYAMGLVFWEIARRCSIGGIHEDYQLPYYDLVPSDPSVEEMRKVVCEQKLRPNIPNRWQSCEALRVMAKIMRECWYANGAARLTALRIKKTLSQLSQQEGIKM
row,Structure (SMILES),IC50
1,"CC(CO)n1cnc(-c2ccc(F)cc2)c1-c1ccc2ncc(C#N)n2c1 (stereo not shown) [81′, 6-(4-(4-fluorophenyl)-1-(1-hydroxypropan-2-yl)-1H-imidazol-5-yl)imidazo[1,2-a]pyridine-3-carbonitrile]",88.5 nM
2,"N#Cc1cnc2ccc(-c3c(-c4ccc(F)c(Cl)c4)ncn3CC3CC3)cn12 [96′, 6-(4-(3-chloro-4-fluorophenyl)-1-(cyclopropylmethyl)-1H-imidazol-5-yl)imidazo[1,2-a]pyridine-3-carbonitrile]",94.4 nM
3,"CC(O)Cn1cnc(-c2ccc(F)cc2)c1-c1ccc2ncc(C(N)=O)n2c1 (stereo not shown) [176′, 6-(4-(4-fluorophenyl)-1-(2-hydroxypropyl)-1H-imidazol-5-yl)imidazo[1,2-a]pyridine-3-carboxamide]",5.2 nM
4,"Fc1ccc(-c2ncn(CC(F)F)c2-c2ccc3ncc(F)n3c2)cc1 [Example 288′, 6-(1-(2,2-difluoroethyl)-4-(4-fluorophenyl)-1H-imidazol-5-yl)-3-fluoroimidazo[1,2-a]pyridine]",56.7 nM
5,"Fc1ccc(-c2ncn([C@@H]3CCC(F)(F)C3)c2-c2ccc3nccn3c2)cc1Cl [185′, (R)-6-(4-(3-chloro-4-fluorophenyl)-1-(3,3-difluorocyclopentyl)-1H-imidazol-5-yl)imidazo[1,2-a]pyridine]",30.1 nM
6,"FCCn1cnc(-c2ccc(F)c(Cl)c2)c1-c1ccc2nccn2c1 [187′, 6-(4-(3-chloro-4-fluorophenyl)-1-(2-fluoroethyl)-1H-imidazol-5-yl)imidazo[1,2-a]pyridine]",3.3 nM
7,"CCn1cnc(-c2ccc(F)cc2)c1-c1ccc2ncc(C(N)=O)n2n1 [112′, 6-(1-ethyl-4-(4-fluorophenyl)-1H-imidazol-5-yl)imidazo[1,2-b]pyridazine-3-carboxamide]",0.7 nM
8,"CCn1cnc(-c2ccc(F)cc2)c1-c1ccc2ncc(C(N)=O)n2c1 [160′, 6-(1-ethyl-4-(4-fluorophenyl)-1H-imidazol-5-yl)imidazo[1,2-a]pyridine-3-carboxamide]",0.8 nM
9,"N#Cc1cnc2ccc(-c3c(-c4ccc(F)cc4)ncn3C3CC(F)(F)C3)cn12 [66′, 6-(1-(3,3-difluorocyclobutyl)-4-(4-fluorophenyl)-1H-imidazol-5-yl)imidazo[1,2-a]pyridine-3-carbonitrile]",418 nM
10,"Fc1ccc(-c2ncn(CC(F)F)c2-c2ccc3ncc(C(F)F)n3c2)cc1 [Example 277′, 6-(1-(2,2-difluoroethyl)-4-(4-fluorophenyl)-1H-imidazol-5-yl)-3-(difluoromethyl)imidazo [1,2-a]pyridine]",20.9 nM
11,"CC(O)CCn1cnc(-c2ccc(F)cc2)c1-c1ccc2ncc(C#N)n2c1 (stereo not shown) [69′, 6-(4-(4-fluorophenyl)-1-(3-hydroxybutyl)-1H-imidazol-5-yl)imidazo[1,2-a]pyridine-3-carbonitrile]",151 nM
12,"NC(=O)c1cnc2ccc(-c3c(-c4ccc(F)c(Cl)c4)ncn3CCCCl)nn12 [149′, 6-(4-(3-chloro-4-fluorophenyl)-1-(3-chloropropyl)-1H-imidazol-5-yl)imidazo[1,2-b]pyridazine-3-carboxamide]",1.7 nM
13,"N#Cc1cnc2ccc(-c3c(-c4ccc(F)c(Cl)c4)ncn3[C@H]3C[C@@H](O)C3)nn12 [Example 39′, 6-(4-(3-chloro-4-fluorophenyl)-1-((cis)-3-hydroxycyclobutyl)-1H-imidazol-5-yl)imidazo[1,2-b]pyridazine-3-carbonitrile]",0.9 nM
14,"Cn1cnc(-c2ccc(F)c(Cl)c2)c1-c1ccc2ncc(C#N)n2c1 [98′, 6-(4-(3-chloro-4-fluorophenyl)-1-methyl-1H-imidazol-5-yl)imidazo[1,2-a]pyridine-3-carbonitrile]",17.3 nM
15,"CC(C)n1cnc(-c2ccc(F)c(Cl)c2)c1-c1ccc2ncc(C#N)n2n1 [51′, 6-(4-(3-chloro-4-fluorophenyl)-1-isopropyl-1H-imidazol-5-yl)imidazo[1,2-b]pyridazine-3-carbonitrile]",0.6 nM
16,"OCc1cnc2ccc(-c3c(-c4ccc(F)cc4)ncn3CC(F)F)nn12 [Example 210′, (6-(1-(2,2-difluoroethyl)-4-(4-fluorophenyl)-1H-imidazol-5-yl)imidazo[1,2-b]pyridazin-3-yl)methanol]",2.2 nM
17,"N#Cc1cnc2ccc(-c3c(-c4ccc(F)cc4)ncn3C3(C#N)CC3)nn12 [Example 267′, 6-(1-(1-cyanocyclopropyl)-4-(4-fluorophenyl)-1H-imidazol-5-yl)imidazo[1,2-b]pyridazine-3-carbonitrile, TFA]",0.3 nM
18,"NC(=O)c1cnc2ccc(-c3c(-c4ccc(F)cc4)ncn3CCCO)nn12 [132′, 6-(4-(4-fluorophenyl)-1-(3-hydroxypropyl)-1H-imidazol-5-yl)imidazo[1,2-b]pyridazine-3-carboxamide]",4.7 nM
19,"Cn1cnc(-c2ccc(F)cc2)c1-c1ccc2ncc(C(N)=O)n2n1 [134′, 6-(4-(4-fluorophenyl)-1-methyl-1H-imidazol-5-yl)imidazo[1,2-b]pyridazine-3-carboxamide]",3.9 nM
20,"CCn1cnc(-c2ccc(F)cc2)c1-c1ccc2ncc(C#N)n2c1 [73′, 6-(1-ethyl-4-(4-fluorophenyl)-1H-imidazol-5-yl)imidazo[1,2-a]pyridine-3-carbonitrile]",36.2 nM
21,"NC(=O)c1cnc2ccc(-c3c(-c4ccc(F)cc4)ncn3C[C@H](O)CO)cn12 [161′, (S)-6-(1-(2,3-dihydroxypropyl)-4-(4-fluorophenyl)-1H-imidazol-5-yl)imidazo[1,2-a]pyridine-3-carboxamide]",6.7 nM
22,"N#Cc1cnc2ccc(-c3c(-c4ccc(F)c(Cl)c4)ncn3CCC3CC3)nn12 [61′, 6-(4-(3-chloro-4-fluorophenyl)-1-(2-cyclopropylethyl)-1H-imidazol-5-yl)imidazo[1,2-b]pyridazine-3-carbonitrile]",0.8 nM
23,"N#Cc1cnc2ccc(-c3c(-c4ccc(F)cc4)ncn3C3CCCC3)cn12 [86′, 6-(1-cyclopentyl-4-(4-fluorophenyl)-1H-imidazol-5-yl)imidazo[1,2-a]pyridine-3-carbonitrile]",94.7 nM
24,"CC(C1CC1)n1cnc(-c2ccc(F)cc2)c1-c1ccc2ncc(C#N)n2c1 (stereo not shown) [88′, 6-(1-(1-cyclopropylethyl)-4-(4-fluorophenyl)-1H-imidazol-5-yl)imidazo[1,2-a]pyridine-3-carbonitrile]",19.3 nM
25,"N#Cc1cnc2ccc(-c3c(-c4ccc(F)cc4)ncn3CCF)nn12 [9′, 6-(1-(2-fluoroethyl)-4-(4-fluorophenyl)-1H-imidazol-5-yl)imidazo[1,2-b]pyridazine-3-carbonitrile]",1.9 nM
26,"Fc1ccc(-c2ncn(CC(F)F)c2-c2ccc3nccn3c2)cc1 [Example 218′, 6-(1-(2,2-difluoroethyl)-4-(4-fluorophenyl)-1H-imidazol-5-yl)imidazo[1,2-a]pyridine]",62.7 nM
27,"NC(=O)c1cnc2ccc(-c3c(-c4ccc(F)cc4)ncn3CCF)nn12 [111′, 6-(1-(2-fluoroethyl)-4-(4-fluorophenyl)-1H-imidazol-5-yl)imidazo[1,2-b]pyridazine-3-carboxamide]",0.8 nM
28,"Fc1ccc(-c2ncn(CC(F)F)c2-c2ccn3ncnc3c2)cc1 [Example 282′, 7-(1-(2,2-difluoroethyl)-4-(4-fluorophenyl)-1H-imidazol-5-yl)-[1,2,4]triazolo[1,5-a]pyridine]",12.9 nM
